In data set [1] the test system is Rat H9C2 cardiomyocytes. Kind of data set: cells. The conditions noted are these: H9c2, 24 h, read-out: Cell viability.
Experimental: (§3) Rat H9C2 cardiomyocytes in the logarithmic growth phase were seeded at a density of 7×10^4 cells/mL into 96-well plates, with 100 μL per well. […] After 24 hours of culture, the drug treatment groups were respectively added with 50 μM Ang II and the corresponding concentration of the drug. The Ang II model group was added with 50 μM Ang II and an equal volume of DMSO, and the blank control group was added with an equal volume of DMSO. Then, the cells were cultured for another 24 hours. After removing the supernatant, 100 μL of MTT solution (0.5 mg/mL) was added to each well, and the plates were placed in an incubator for 4 hours. After removing the supernatant again, 150 μL of DMSO was added to each well, and the mixture was shaken and mixed evenly for 10 minutes. The absorbance was measured at 570 nm using a microplate reader to calculate the cell viability.
(§4) Cell viability (%)=[(As−Ab)/(Ac−Ab)]×100% • As: Experimental well (culture medium containing cells, MTT, Ang II); • Ac: Control well (culture medium containing cells, MTT, without Ang II); • Ab: Blank well (culture medium without cells, MTT, without Ang II).
Data set [2] has as its system H9C2 cardiomyocytes. The conditions noted are these: for OD: 6 h hypoxia, 12 h reoxygenation, CCK 450 nm; for Cell viability: rat, h9c2 cells.
Experimental: (§5) H9C2 cardiomyocytes in the logarithmic growth phase were seeded into 96-well plates at a density of 7×10^4 cells/mL, with 100 μL per well.
(§6) After 24 hours of culture, the culture medium of the H/R and drug-treated groups was replaced with serum-free glucose-free DMEM medium (100 μL per well). The cells were then placed in an anaerobic incubator and cultured under hypoxic conditions in a 37° C. cell culture incubator. After 6 hours, the supernatant of the H/R and drug-treated groups was removed and replaced with high-glucose medium containing 10% fetal bovine serum (100 μL per well). Each drug-treated group received the corresponding concentration of the drug, while the H/R model group and the blank control group received an equal volume of DMSO.
(§7) After removing the supernatant, 100 μL of CCK solution (the volume of CCK accounted for 10% of the DMEM culture medium volume) was added to each well. The cells were cultured in the cell culture incubator for 1 hour, and the absorbance was measured at 450 nm using a microplate reader to calculate the cell viability. Cell viability was calculated as follows: Cell viability (%)=(Experimental well-Blank well)/(Control well-Blank well)×100%.
In data set [3] the test system is mice with isoproterenol (ISO)-induced ischemic heart disease. Kind of data set: ISO-induced ischemic heart disease mouse model: Ca2+ in myocardial tissue. The conditions noted are these: 20 mg/kg intragastric once a day 11 days. The data set is classed as in vivo. How it is done:
(§1) Male C57BL/6 mice were allowed to acclimate to the environment and then randomly divided into 9 groups, namely the blank control group, the ISO model group, the ISO+diltiazem 20 mg/kg positive control drug group, the ISO+Formula I (0.1, 0.5, 2 mg/kg) groups, and the ISO+Formula II (0.1, 0.5, 2 mg/kg) groups. Mice in the drug administration groups were intragastrically administered the corresponding doses of Formula I and Formula II compounds once a day at the same time. Mice in the positive drug diltiazem group were intragastrically administered the corresponding dose of diltiazem once a day. Mice in the blank control group and the model group were given the same amount of solvent (0.5% CMC-Na). The administration volume was 10 mL/kg, and the administration was continuous for 11 days.
(§2) From the 4th to the 10th day of drug administration, ISO modeling was carried out. The blank control group was subcutaneously injected with normal saline, and mice in the other groups were subcutaneously injected with ISO at a dose of 40 mg/kg (modeling was performed 2 hours after drug administration), for a total of 7 times.
Calcium ion detection in myocardial tissue: After the experiment ended, some myocardial tissue was taken to prepare a 10% myocardial tissue homogenate with ultrapure water. The homogenate was centrifuged at 1200 rpm for 20 minutes at 4° C. to separate the supernatant of the myocardial tissue homogenate. The calcium ion content was determined according to the kit instructions; protein quantification was performed using the BCA protein assay method.

Data set [4] relates to Rat H9C2 cardiomyocytes. The conditions noted are these: for OD: 800 μM ISO 24 h, MTT 570 nm; for Cell survival rate: rat, h9c2 cells, 24 h.
Experimental: (§8) Rat H9C2 cardiomyocytes in the logarithmic growth phase were seeded into 96-well plates at a density of 7×10^4 cells/mL, with 100 μL per well. […] After 24 hours of culture, the drug groups were treated with 800 μM ISO and the corresponding concentrations of drugs. The ISO model group received 800 μM ISO and an equal volume of DMSO, and the blank control group received an equal volume of DMSO. The cells were then cultured for another 24 hours. After removing the supernatant, 100 μL MTT solution (0.5 mg/mL) was added to each well and incubated in the cell culture incubator for 4 hours. After removing the supernatant, 150 μL DMSO was added to each well, mixed by shaking for 10 minutes, and the absorbance was measured at 570 nm using a microplate reader to calculate cell viability. Cell viability (%)=[(As−Ab)/(Ac−Ab)]×100%. As: Experimental well (medium with cells, MTT, ISO); Ac: Control well (medium with cells, MTT, without ISO); Ab: Blank well (medium without cells, MTT, without ISO).
The test system of data set [5] is Rat H9C2 cardiomyocytes. In words: cells. The conditions noted are these: H9c2, 24 h, read-out: Cell survival rate.
Experimental: as §8
Data set [6] deals with mice with isoproterenol (ISO)-induced ischemic heart disease. Kind of data set: ISO-induced ischemic heart disease mouse model: myocardial tissue pathology (H&E). The data set is classed as in vivo. The conditions noted are these: 20 mg/kg, H&E. As to the method:
as §1, §2
Pathological detection of myocardial tissue: After the experiment ended, the heart was washed with ice-cold physiological saline and dried with absorbent paper. It was then cut transversely into two halves. One-third of the part closer to the apex of the heart was fixed in a 4% paraformaldehyde solution. After dehydration with gradient ethanol and clearing with xylene, it was immersed in melted paraffin three times for embedding, 30 minutes each time. After embedding, continuous sections (about 4 μm thick) were made. Routine hematoxylin and eosin (H.E.) staining was performed. The pathological state of the myocardial tissue was observed under an optical microscope, photographed, and analyzed.
• −: No abnormalities were observed. • +: No myocardial tissue damage was seen. There was local hypertrophy of cardiomyocytes in the interventricular septum and papillary muscles, local edema and degeneration of cardiomyocytes, widening of the local muscle space in the lesion area, and mild non-specific inflammation in the interstitium. • ++: No obvious myocardial tissue damage (cardiomyocyte necrosis) was observed. There was local hypertrophy of cardiomyocytes in the interventricular septum and papillary muscles, local edema and degeneration of cardiomyocytes. Myofibril dissolution (disappearance of cross-striations) could be seen in local areas. The lesions were relatively limited and distributed in small foci. Non-specific inflammation was visible in the interstitium, and local fibrous tissue hyperplasia in the interstitium was noted. • +++: There was obvious hypertrophy of cardiomyocytes in the interventricular septum and papillary muscles, local edema and degeneration of cardiomyocytes. […] The lesion was limited to the subendocardium of the local interventricular septum (or papillary muscle), with a limited and small affected area. Non-specific inflammation was visible in the interstitium of the lesion area, and local fibrous tissue hyperplasia in the interstitium was noted. • ++++: The hypertrophy of cardiomyocytes in the interventricular septum and papillary muscles is remarkable. Locally, there is edema and degeneration of cardiomyocytes; there is obvious damage (necrosis of cardiomyocytes) in the myocardial tissue of the local interventricular septum and papillary muscles. The lesions are distributed in foci (or small patches), and the affected area is relatively large. […] Locally, there is edema and degeneration of cardiomyocytes; the damage (necrosis of cardiomyocytes) of the myocardial tissue of the local interventricular septum and papillary muscles is severe. The damage (necrosis) lesions are distributed in patches and are connected to each other. Transmural myocardial tissue damage of the interventricular septum and papillary muscles can be seen locally.

The test system is the same in data set [7]. Kind of data set: ISO-induced ischemic heart disease mouse model: serum CK-MB (ELISA). Format: in vivo. Particulars: 20 mg/kg intragastric once a day 11 days. How it is done: as §1, §2
Myocardial enzyme CK-MB detection: After the administration ended, blood was collected from the animals by enucleation. The blood was left to stand at room temperature for 2 hours, and then centrifuged at 3500 rpm for 20 minutes to separate the serum. The content of CK-MB in the serum was determined according to the instructions of the ELISA kit.

Data set [8] has as its system H9C2 cardiomyocytes. Kind of data set: Angiotensin II (Ang II)-induced cardiomyocyte hypertrophy model, crystal violet, cell surface area. Format: cell-based, rat. The conditions noted are these: 10 μM; 40 μM Ang II 24 h; mean of 5 views. How it is done: Adjust the H9C2 cardiomyocytes in the logarithmic growth phase to a density of 1.2×10^5 cells/well and inoculate them into six-well plates. […] After culturing for 24 hours, the drug administration groups are added with 40 μM Ang II and the corresponding concentrations of drugs. The Ang II+diltiazem 10 μM group is added with 40 μM Ang II and 10 μM diltiazem. The Ang II model group is added with 40 μM Ang II and an equal volume of DMSO. The blank control group is added with an equal volume of DMSO. Then, continue culturing for 24 hours. Discard the culture medium, wash the cells 3 times with PBS. Add 1 mL of methanol to each well and fix the cells at −20° C. for 20 minutes, and then let them return to room temperature. After discarding the methanol, add 1 mL of 0.5% crystal violet staining solution to each well and stain for 10 minutes. Wash the cells with clean water and take pictures under an inverted microscope. Randomly select fields of view for photographing. Use Image J software to measure the sum of the surface areas of all cardiomyocytes in the field of view and count the number of cells in the field of view at the same time to obtain the surface area of each cardiomyocyte. The surface area of a single cardiomyocyte=the sum of the surface areas of all cardiomyocytes in the field of view/the number of cardiomyocytes in the field of view.

Data set [9] has as its system mice with isoproterenol (ISO)-induced ischemic heart disease. Kind of data set: ISO-induced ischemic heart disease mouse model: serum ANP and NT-proBNP (ELISA). The data set is classed as in vivo. The conditions noted are these: 20 mg/kg intragastric once a day 11 days, ISO 40 mg/kg s.c. 7 times. How it is done:
as §1, §2
Detection of Myocardial Hypertrophy/Heart Failure Biomarkers: After the drug administration ended, the animals' eyes were enucleated to collect blood. The blood was left to stand at room temperature for 2 hours, and then centrifuged at 3500 rpm for 20 minutes to separate the serum. The contents of serum ANP and NT-proBNP were determined according to the instructions of the ELISA kit.

Data set [10] deals with H9C2 cardiomyocytes. In words: cells. The conditions noted are these: Rattus norvegicus, H9c2, read-out: Cell viability.
Experimental: as §5, §6, §7
Data set [11] concerns Rat H9C2 cardiomyocytes. The conditions noted are these: for OD: 10 μM, 50 μM Ang II 24 h, MTT 570 nm.
Experimental: as §3, §4

The results in this text go back to patent US20260285849A1, “METHYLOPHIOPOGONONE A DERIVATIVE, AND PREPARATION AND USE THEREOF” (INSTITUTE OF MATERIA MEDICA, CHINESE ACADEMY OF MEDICAL …, priority 2022, published 2026).

Like-named read-outs stand apart in the source and are kept apart here. Marks after values point to notes of the source that are not given here.

For `COc1ccc([C@@H]2Sc3ccccc3N(CCN(C)C)C(=O)[C@@H]2OC(C)=O)cc1` [Diltiazem, reference compound], the viability at 10 µM in the data set on Rat H9C2 cardiomyocytes [1] is 79.7%. In the data set with H9C2 cardiomyocytes [2] (10 μM), this molecule had an OD of 0.522 ± 0.061. In data set [3], the “Ca^2+” value is 0.057 ± 0.011 mmol/gprot. For the same molecule, the OD in the data set with Rat H9C2 cardiomyocytes [4] (10 μM) was found to be 0.773 ± 0.029. The viability at 10 µM in the data set on Rat H9C2 cardiomyocytes [5] was found to be 63.9%. In addition, in [6], the “The number of animals with lesion degree +” value worked out at 3, the “The number of animals with lesion degree ++” value is reported as 1, the “The number of animals with lesion degree +++” value worked out at 4 and the “The number of animals with lesion degree ++++” value is listed as 0. In data set [6], the “The number of animals with lesion degree +++++” value turned out to be 0, the “The number of animals with lesion degree −” value is listed as 2 and the “average score of myocardial tissue lesion degree” value was found to be 1.70 ± 1.25. The same molecule had a CK-MB in data set [7] of 17.98 ± 2.88 ng/mL. Besides, in the data set on H9C2 cardiomyocytes [8], the Myocardial surface area is on record as 392.02 ± 19.37^### μm^2. In data set [9], the ANP is on record as 361.59 ± 46.95^ pg/mL and the NT-proBNP was found to be 43.12 ± 2.93 pg/mL. The viability at 10 µM in the data set on H9C2 cardiomyocytes [10] was found to be 50.2%. In the data set with Rat H9C2 cardiomyocytes [11], this molecule returned an OD of 0.857 ± 0.042.
For the molecule `Cc1c(O)cc2occ(Cc3ccc4c(c3)OCO4)c(=O)c2c1O` [Formula III], the OD with H9C2 cardiomyocytes [2] (0.1 μM) stood at 0.552 ± 0.067; with H9C2 cardiomyocytes [2] (0.3 μM), 0.500 ± 0.062; in the data set on H9C2 cardiomyocytes [2] (1 μM), 0.555 ± 0.053; in the data set on H9C2 cardiomyocytes [2] (3 μM), 0.580 ± 0.069; in the data set with H9C2 cardiomyocytes [2] (5 μM) it was 0.543 ± 0.037; in the data set on H9C2 cardiomyocytes [2] (10 μM), 0.527 ± 0.047. In addition, the OD with Rat H9C2 cardiomyocytes [4] (1 μM) was 0.815 ± 0.041; with Rat H9C2 cardiomyocytes [4] (5 μM), 0.792 ± 0.061; in the data set on Rat H9C2 cardiomyocytes [4] (10 μM) it was 0.750 ± 0.065. The viability at 1 µM turned out to be 67.4% in the data set on Rat H9C2 cardiomyocytes [5] and 53.4% with H9C2 cardiomyocytes [10]. Besides, the figures for the viability at 5 µM with Rat H9C2 cardiomyocytes [5] and in the data set with H9C2 cardiomyocytes [10] were 65.5% and 52.2%, respectively. In addition, the values for the viability at 10 µM in the data set with Rat H9C2 cardiomyocytes [5] and with H9C2 cardiomyocytes [10] were 62.1% and 50.6%, respectively. In the data set on H9C2 cardiomyocytes [10], the viability at 0.1 µM was determined as 53.1%. Besides, in the data set with H9C2 cardiomyocytes [10], the viability at 0.3 µM turned out to be 48.1%. The viability at 3 µM with H9C2 cardiomyocytes [10] is 55.8%.
As for `Cc1c(O)c(C)c2occ(Cc3ccc4c(c3)OCO4)c(=O)c2c1O` [methyl ophiopogonone A, reference compound], the OD in the data set on H9C2 cardiomyocytes [2] (1 μM) was 0.540 ± 0.034; with H9C2 cardiomyocytes [2] (5 μM) it was 0.501 ± 0.042; with H9C2 cardiomyocytes [2] (10 μM), 0.581 ± 0.054; with Rat H9C2 cardiomyocytes [4] (1 μM), 0.781 ± 0.029; with Rat H9C2 cardiomyocytes [4] (5 μM), 0.801 ± 0.045; in the data set on Rat H9C2 cardiomyocytes [4] (10 μM) it was 0.724 ± 0.024^(p = 0.09). This molecule also returned an OD in the data set on Rat H9C2 cardiomyocytes [11] of 0.833 ± 0.041. For the same molecule, the Cell viability turned out to be 51.93% in the data set on H9C2 cardiomyocytes [2] (1 µM); 48.17% in the data set with H9C2 cardiomyocytes [2] (5 µM); 55.82% in the data set with H9C2 cardiomyocytes [2] (10 µM); 77.40% in the data set with Rat H9C2 cardiomyocytes [11] (rat, h9c2 cells, 24 h, 10 µM). Besides, the Cell survival rate in the data set on Rat H9C2 cardiomyocytes [4] (1 µM) was determined as 64.63%; in the data set with Rat H9C2 cardiomyocytes [4] (5 µM) it was 66.28%; with Rat H9C2 cardiomyocytes [4] (10 µM), 59.89%.
